Where a SMILES comes first, the peptide text is derived from it.
Molecular target: HLA A*3001 (Homo sapiens, UniProt P04439, D140H/D185E/E176W/F33S/G80R/H175R/K168Q/R138E/R41S)
Test: biochemical
Type: binding

HLA A*3001, sequence (P04439 25-365 limits assumed, stated change not applied): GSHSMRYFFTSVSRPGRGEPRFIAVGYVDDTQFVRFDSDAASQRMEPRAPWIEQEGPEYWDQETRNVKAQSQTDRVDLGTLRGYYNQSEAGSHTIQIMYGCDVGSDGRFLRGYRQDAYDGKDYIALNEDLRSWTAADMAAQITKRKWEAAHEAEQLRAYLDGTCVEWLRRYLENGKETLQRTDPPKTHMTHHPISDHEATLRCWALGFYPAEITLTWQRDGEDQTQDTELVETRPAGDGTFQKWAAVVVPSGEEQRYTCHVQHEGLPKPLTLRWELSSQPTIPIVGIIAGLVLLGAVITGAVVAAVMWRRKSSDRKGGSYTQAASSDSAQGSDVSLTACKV

Row | SMILES | IC50
1 | CC(C)C[C@H](NC(=O)[C@H](CC(N)=O)NC(=O)[C@@H](NC(=O)[C@H](CC(C)C)NC(=O)[C@H](CCCNC(=N)N)NC(=O)[C@H](CCC(N)=O)NC(=O)[C@@H](N)CCCCN)[C@@H](C)O)C(=O)N[C@@H](CCC(=O)O)C(=O)N[C@@H](CCCCN)C(=O)O [3102.0243] (H-KQRLTNLEK-OH) | 0.95 nM
2 | CC[C@H](C)[C@H](NC(=O)[C@H](CCSC)NC(=O)[C@H](C)NC(=O)[C@H](C)NC(=O)[C@H](CCCNC(=N)N)NC(=O)[C@H](CC(C)C)NC(=O)[C@@H](N)[C@@H](C)O)C(=O)N[C@@H](CO)C(=O)N[C@@H](CC(C)C)C(=O)O [3102.0245] (H-TLRAAMISL-OH) | 0.71 nM
3 | CC[C@H](C)[C@H](NC(=O)[C@H](CC(C)C)NC(=O)[C@H](CO)NC(=O)[C@@H](NC(=O)[C@H](CCCNC(=N)N)NC(=O)[C@@H](NC(=O)[C@@H](N)CCCNC(=N)N)C(C)C)[C@@H](C)CC)C(=O)N[C@@H](Cc1ccc(O)cc1)C(=O)N[C@@H](CC(C)C)C(=O)O [3102.0249] (H-RVRISLIYL-OH) | 0.092 nM
4 | CC(C)C[C@H](NC(=O)[C@H](CO)NC(=O)[C@H](Cc1c[nH]cn1)NC(=O)[C@H](CC(C)C)NC(=O)[C@H](CCCNC(=N)N)NC(=O)[C@H](C)NC(=O)[C@H](CO)NC(=O)[C@@H](NC(=O)[C@@H](N)Cc1c[nH]cn1)[C@@H](C)O)C(=O)O [3102.0250] (H-HTSARLHSL-OH) | 4.1 nM
5 | C[C@@H](O)[C@H](N)C(=O)N[C@H](C(=O)N[C@@H](CCCCN)C(=O)N[C@@H](CC(N)=O)C(=O)NCC(=O)N[C@@H](CCC(N)=O)C(=O)N1CCC[C@H]1C(=O)N[C@@H](CCCNC(=N)N)C(=O)N[C@@H](CCCCN)C(=O)O)[C@@H](C)O [3102.0252] (H-TTKNGQPRK-OH) | 0.23 nM
6 | CC[C@H](C)[C@H](NC(=O)[C@H](CC(N)=O)NC(=O)[C@H](CO)NC(=O)[C@H](CCSC)NC(=O)[C@H](CC(C)C)NC(=O)[C@H](CCCCN)NC(=O)[C@@H](NC(=O)[C@@H](N)CCCNC(=N)N)[C@@H](C)O)C(=O)N[C@@H](CCCCN)C(=O)O [3102.0253] (H-RTKLMSNIK-OH) | 0.38 nM
7 | CC[C@H](C)[C@H](NC(=O)[C@H](CCSC)NC(=O)[C@H](CCSC)NC(=O)[C@@H](NC(=O)[C@@H](N)CCCCN)[C@@H](C)O)C(=O)N[C@@H](CC(N)=O)C(=O)N1CCC[C@H]1C(=O)N[C@@H](Cc1ccccc1)C(=O)N[C@@H](CCSC)C(=O)O [3102.0254] (H-KTMMINPFM-OH) | 0.36 nM
8 | CC[C@H](C)[C@H](NC(=O)[C@@H](NC(=O)[C@H](CO)NC(=O)[C@@H](N)CCSC)C(C)C)C(=O)N[C@@H](CO)C(=O)N[C@@H](CC(N)=O)C(=O)N1CCC[C@H]1C(=O)N[C@@H](CO)C(=O)N[C@@H](CCCCN)C(=O)O [3102.0255] (H-MSVISNPSK-OH) | 20 nM
9 | CC(C)C[C@H](NC(=O)[C@H](CCCCN)NC(=O)[C@H](Cc1ccccc1)NC(=O)[C@@H](N)CCCCN)C(=O)N[C@H](C(=O)N[C@@H](CC(C)C)C(=O)N1CCC[C@H]1C(=O)N[C@@H](CC(N)=O)C(=O)N[C@@H](CCCCN)C(=O)O)[C@@H](C)O [3102.0261] (H-KFKLTLPNK-OH) | 12 nM
10 | CC(C)C[C@H](NC(=O)[C@H](CCCCN)NC(=O)[C@H](CCCCN)NC(=O)[C@@H](NC(=O)[C@@H](N)CCCCN)C(C)C)C(=O)N[C@@H](CC(N)=O)C(=O)N[C@@H](CCCNC(=N)N)C(=O)N[C@@H](CS)C(=O)N[C@@H](C)C(=O)O [3102.0262] (H-KVKKLNRCA-OH) | 3.1 nM
11 | CSCC[C@H](NC(=O)[C@H](Cc1ccccc1)NC(=O)[C@H](CCCCN)NC(=O)[C@H](CCCNC(=N)N)NC(=O)[C@H](CO)NC(=O)[C@@H](N)CCSC)C(=O)N[C@@H](CCC(N)=O)C(=O)N[C@H](C(=O)N[C@@H](Cc1ccc(O)cc1)C(=O)O)C(C)C [3102.0264] (H-MSRKFMQVY-OH) | 1.5 nM
12 | CC(C)C[C@H](NC(=O)[C@@H](NC(=O)[C@H](CS)NC(=O)[C@H](C)NC(=O)[C@H](Cc1ccccc1)NC(=O)[C@H](CCCCN)NC(=O)[C@H](CO)NC(=O)[C@@H](N)CO)C(C)C)C(=O)N[C@@H](CCCCN)C(=O)O [3102.0265] (H-SSKFACVLK-OH) | 9.9 nM
13 | C[C@H](NC(=O)[C@H](CCCNC(=N)N)NC(=O)[C@H](CC(N)=O)NC(=O)[C@H](CCC(N)=O)NC(=O)[C@H](Cc1ccccc1)NC(=O)[C@H](CCCCN)NC(=O)[C@@H](NC(=O)[C@@H](N)CCCNC(=N)N)[C@@H](C)O)C(=O)N[C@@H](CCCCN)C(=O)O [3102.0266] (H-RTKFQNRAK-OH) | 0.16 nM
14 | CC[C@H](C)[C@H](NC(=O)[C@H](CCCCN)NC(=O)[C@H](Cc1c[nH]cn1)NC(=O)[C@@H](N)CCCCN)C(=O)N[C@@H](Cc1ccccc1)C(=O)N[C@@H](CO)C(=O)N1CCC[C@H]1C(=O)N[C@@H](Cc1ccccc1)C(=O)N[C@@H](CCCCN)C(=O)O [3102.0267] (H-KHKIFSPFK-OH) | 0.89 nM
15 | CSCC[C@H](NC(=O)[C@H](CCCNC(=N)N)NC(=O)[C@H](Cc1ccc(O)cc1)NC(=O)[C@@H](N)CCCNC(=N)N)C(=O)N[C@@H](Cc1c[nH]cn1)C(=O)N1CCC[C@H]1C(=O)N[C@@H](CCSC)C(=O)N[C@@H](CO)C(=O)N[C@@H](CCCCN)C(=O)O [3102.0268] (H-RYRMHPMSK-OH) | 0.068 nM
16 | CC[C@H](C)[C@H](NC(=O)[C@H](CCC(N)=O)NC(=O)[C@@H](NC(=O)[C@@H](NC(=O)[C@H](C)NC(=O)[C@H](CCCCN)NC(=O)[C@@H](NC(=O)[C@@H](N)[C@@H](C)O)[C@@H](C)O)[C@@H](C)O)[C@@H](C)O)C(=O)N[C@@H](C)C(=O)O [3102.0270] (H-TTKATTQIA-OH) | 6.5 nM
17 | CC(C)[C@H](NC(=O)[C@H](Cc1c[nH]cn1)NC(=O)[C@@H](NC(=O)[C@H](CC(=O)O)NC(=O)[C@H](CCCCN)NC(=O)[C@H](CO)NC(=O)[C@@H](N)CCCNC(=N)N)[C@@H](C)O)C(=O)N[C@@H](Cc1ccccc1)C(=O)N[C@@H](C)C(=O)O [3102.0271] (H-RSKDTHVFA-OH) | 0.019 nM
18 | CC[C@H](C)[C@H](NC(=O)[C@H](Cc1ccc(O)cc1)NC(=O)[C@@H](NC(=O)[C@@H](N)CCCCN)C(C)C)C(=O)NCC(=O)N[C@@H](Cc1ccc(O)cc1)C(=O)N[C@@H](CS)C(=O)N[C@@H](CCSC)C(=O)N[C@@H](C)C(=O)O [3102.0272] (H-KVYIGYCMA-OH) | 2.6 nM
19 | CC(C)C[C@H](N)C(=O)N[C@@H](C)C(=O)N[C@@H](CCCNC(=N)N)C(=O)N[C@@H](CCCNC(=N)N)C(=O)N1CCC[C@H]1C(=O)N[C@H](C(=O)N1CCC[C@H]1C(=O)N[C@@H](CCCCN)C(=O)N[C@@H](CCCCN)C(=O)O)[C@@H](C)O [3102.0275] (H-LARRPTPKK-OH) | 10 nM
20 | CC[C@H](C)[C@H](NC(=O)[C@H](CO)NC(=O)[C@H](CO)NC(=O)[C@H](CO)NC(=O)[C@H](CCCCN)NC(=O)[C@H](CCCNC(=N)N)NC(=O)[C@H](CO)NC(=O)CN)C(=O)N[C@@H](CC(C)C)C(=O)O [3102.0276] (H-GSRKSSSIL-OH) | 1.6 nM
21 | CSCC[C@H](NC(=O)[C@H](CCSC)NC(=O)[C@@H]1CCCN1C(=O)[C@@H](NC(=O)[C@@H](NC(=O)[C@H](CC(N)=O)NC(=O)[C@H](CCCNC(=N)N)NC(=O)[C@H](CO)NC(=O)[C@@H](N)CCCCN)[C@@H](C)O)[C@@H](C)O)C(=O)O [3102.0277] (H-KSRNTTPMM-OH) | 0.1 nM
22 | C[C@H](NC(=O)[C@H](CCCNC(=N)N)NC(=O)[C@H](Cc1ccccc1)NC(=O)[C@H](CCCCN)NC(=O)[C@@H]1CCCN1C(=O)[C@@H]1CCCN1C(=O)[C@H](CCCCN)NC(=O)[C@H](Cc1ccccc1)NC(=O)[C@@H](N)Cc1c[nH]cn1)C(=O)O [3102.0279] (H-HFKPPKFRA-OH) | 8.9 nM
